From the supplement of paper PMC10307832

What was measured:
Assay in all cases: relative viability (nuclei count vs DMSO), 5 days (fraction); higher = more cells survive
Doramapimod + Bortezomib = compound: Cc1ccc(-n2nc(C(C)(C)C)cc2NC(=O)Nc2ccc(OCCN3CCOCC3)c3ccccc23)cc1 [Doramapimod] + CC(C)C[C@H](NC(=O)[C@H](Cc1ccccc1)NC(=O)c1cnccn1)B(O)O [Bortezomib] (partner 0.002 µM)
How it was run: (§1)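 After 5 days of treatment, lung cancer cells in 1536-well plates were fixed and stained in a single step (final 0.05% Triton X-100, 1% formaldehyde, 1 ug/ml Hoechst) and their nuclei counted on 4× images. Treatment had been applied by pin tool the day after seeding as one drug alone or as a fixed anchor-drug dose with five library-drug doses (not always all listed) in √10 steps. Relative viability is the nuclei count of treated wells divided by that of vehicle wells, and values are medians of duplicate plates.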

RAF265 + Bortezomib = compound: Cn1c(Nc2ccc(C(F)(F)F)cc2)nc2cc(Oc3ccnc(-c4ncc(C(F)(F)F)[nH]4)c3)ccc21 [RAF265] + CC(C)C[C@H](NC(=O)[C@H](Cc1ccccc1)NC(=O)c1cnccn1)B(O)O [Bortezomib] (partner 0.002 µM)
How it was run: as §1

IPA-3 + Phenformin = compound: C1=CC=C2C(=C1)C=CC(=C2SSC3=C(C=CC4=CC=CC=C43)O)O [IPA-3] + N=C(N)NC(=N)NCCc1ccccc1 [Phenformin] (partner 250 µM)
How it was run: as §1

IPA-3 + OSI-027 = compound: C1=CC=C2C(=C1)C=CC(=C2SSC3=C(C=CC4=CC=CC=C43)O)O [IPA-3] + COc1cccc2cc(-c3nc([C@H]4CC[C@H](C(=O)O)CC4)n4ncnc(N)c34)[nH]c12 [OSI-027] (partner 0.5 µM)
How it was run: as §1

Row | Cell Line | relative viability (Doramapimod + Bortezomib; first compound 0.02 µM) | relative viability (Doramapimod + Bortezomib; first compound 0.06325 µM) | relative viability (Doramapimod + Bortezomib; first compound 0.2 µM) | relative viability (Doramapimod + Bortezomib; first compound 0.6325 µM) | relative viability (Doramapimod + Bortezomib; first compound 2 µM) | relative viability (RAF265 + Bortezomib; first compound 0.01 µM) | relative viability (RAF265 + Bortezomib; first compound 0.03162 µM) | relative viability (RAF265 + Bortezomib; first compound 0.1 µM) | relative viability (RAF265 + Bortezomib; first compound 0.3162 µM) | relative viability (RAF265 + Bortezomib; first compound 1 µM) | relative viability (IPA-3 + Phenformin; first compound 0.2 µM) | relative viability (IPA-3 + Phenformin; first compound 0.6325 µM) | relative viability (IPA-3 + Phenformin; first compound 2 µM) | relative viability (IPA-3 + Phenformin; first compound 6.325 µM) | relative viability (IPA-3 + Phenformin; first compound 20 µM) | relative viability (IPA-3 + OSI-027; first compound 0.2 µM) | relative viability (IPA-3 + OSI-027; first compound 0.6325 µM) | relative viability (IPA-3 + OSI-027; first compound 2 µM) | relative viability (IPA-3 + OSI-027; first compound 6.325 µM) | relative viability (IPA-3 + OSI-027; first compound 20 µM)
1 | HARA | 1.15 | 1.03 | 1.14 | 1.04 | 0.994 | 1.12 | 1.1 | 1.1 | 0.809 | 0.801 | 0.653 | 0.427 | 0.432 | 0.442 | 0.564 | 0.605 | 0.45 | 0.479 | 0.396 | 0.606
2 | HCC-15 | 1.02 | 1.05 | 1.04 | 0.801 | 0.907 | 0.95 | 0.96 | 0.985 | 0.941 | 0.792 | 0.634 | 0.343 | 0.469 | 0.477 | 0.583 | 0.765 | 0.685 | 0.636 | 0.688 | 0.718
3 | HCC-44 | 0.941 | 1.01 | 0.814 | 0.86 | 0.833 | 0.862 | 0.818 | 0.9 | 0.957 | 0.873 | 0.232 | 0.245 | 0.176 | 0.234 | 0.184 | 0.516 | 0.704 | 0.489 | 0.482 | 0.484
4 | HCC-78 | 0.334 | 0.49 | 0.432 | 0.642 | 0.457 | 0.535 | 0.506 | 0.52 | 0.956 | 0.423 | 0.768 | 0.64 | 0.728 | 0.801 | 0.692 | 0.419 | 0.407 | 0.641 | 0.382 | 0.353
5 | HCC-366 | 1.02 | 1 | 1.09 | 1.14 | 1.01 | 1.11 | 1.02 | 1.06 | 1 | 0.985 | 0.715 | 0.584 | 0.636 | 0.567 | 0.752 | 0.978 | 0.709 | 0.802 | 0.93 | 1.07
6 | HCC-827 | 0.963 | 1.03 | 1.01 | 0.931 | 0.969 | 1.1 | 1.08 | 1.08 | – | 0.869 | 0.383 | 0.379 | 0.396 | 0.441 | 0.457 | 0.842 | 0.69 | 0.773 | 0.724 | 0.703
7 | IA-LM | 0.842 | 0.757 | 0.795 | 0.92 | 0.656 | 0.77 | – | 0.805 | 0.593 | 0.548 | – | – | – | – | – | – | – | – | – | –
8 | LK-2 | – | – | – | – | – | – | – | – | – | – | 0.408 | 0.456 | 0.421 | 0.43 | 0.438 | 0.183 | 0.214 | 0.194 | 0.27 | 0.165
9 | NCI-H358 | – | – | – | – | – | – | – | – | – | – | 0.433 | 0.355 | 0.306 | 0.359 | 0.278 | 0.895 | 0.733 | 0.746 | 0.69 | 0.758
10 | NCI-H522 | – | – | – | – | – | – | – | – | – | – | 0.648 | 0.657 | 0.582 | 0.697 | 0.76 | 0.719 | 0.619 | 0.751 | 0.764 | 0.846
11 | NCI-H1299 | 1.03 | 1.09 | 1.04 | 1.06 | 1.05 | 1.04 | 1.02 | 1.05 | 0.969 | 0.741 | – | – | – | – | – | – | – | – | – | –
12 | NCI-H1395 | – | – | – | – | – | – | – | – | – | – | 0.46 | 0.431 | 0.446 | 0.479 | 0.469 | 0.641 | 0.705 | 0.547 | 0.621 | 0.692
13 | NCI-H1623 | – | – | – | – | – | – | – | – | – | – | 0.605 | 0.583 | 0.618 | 0.563 | 0.655 | 0.466 | 0.436 | 0.431 | 0.413 | 0.375
14 | NCI-H1648 | – | – | – | – | – | – | – | – | – | – | – | – | – | – | – | 0.258 | 0.276 | 0.281 | 0.278 | 0.245
15 | NCI-H1703 | 0.305 | 0.208 | 0.226 | 0.365 | 0.218 | 0.253 | 0.289 | 0.36 | 0.295 | 0.216 | – | – | – | – | – | – | – | – | – | –
16 | NCI-H1793 | – | – | – | – | – | – | – | – | – | – | 0.509 | 0.317 | 0.334 | 0.458 | 0.545 | 0.286 | 0.136 | 0.291 | 0.314 | 0.323
17 | NCI-H1944 | – | – | – | – | – | – | – | – | – | – | 0.212 | 0.186 | 0.189 | 0.219 | 0.176 | 0.454 | 0.394 | 0.396 | 0.479 | 0.444
18 | NCI-H2170 | – | – | – | – | – | – | – | – | – | – | 0.438 | 0.358 | 0.457 | 0.356 | 0.481 | 0.733 | 0.691 | 0.721 | 0.672 | 0.677
19 | NCI-H2342 | – | – | – | – | – | – | – | – | – | – | 0.629 | 0.619 | 0.568 | 0.825 | 0.731 | 0.663 | 0.619 | 0.68 | 0.757 | 0.743
20 | SK-MES-1 | – | – | – | – | – | – | – | – | – | – | 0.635 | 0.625 | 0.667 | 0.573 | 0.533 | 0.722 | 0.581 | 0.635 | 0.521 | 0.423
21 | SW 900 | – | – | – | – | – | – | – | – | – | – | 0.783 | 0.575 | 0.556 | 0.784 | 0.677 | 0.759 | 0.611 | 0.6 | 0.556 | 0.409
